The text below walks through data of patent publication US20220331374A1, “NOVEL SKIN CARE COMPOSITION” (BEIERSDORF AG, priority 2019, published 2022).

In one test the test system is C. acnes strain K8. Nature of the test: Minimum inhibitory concentration (MIC) of cosmetic excipients, strain K8. Particulars: % w/vol, incubated anaerobically for 3 days at 37° C., scored visually for growth. The class given is cell-based, Cutibacterium acnes. As for the experimental part:
(§1) In microbiology, the MIC is the lowest concentration of a chemical which prevents visible growth of bacterium. The resulted MIC value depends both on the microorganism and the test compound. The MIC is determined by preparing concentrations series of the test compound in vitro, incubating the solutions with the separate batches of cultured bacteria, and measuring the results using agar dilution or broth microdilution. For the experiments with C. acnes strains C3 and K8, media comprising yeast extract soy peptone and dextrose were used. The MIC is determined by turbidity.
(§2) A total of 125 cosmetic excipients were tested for their compatibility with C. acnes strains C3 and K8. Hydrophilic compounds were tested in a 96-well plate liquid broth format, poorly soluble compounds were pre-dissolved in DMSO before dilution in liquid broth and hydrophobic or solid compounds were tested in an agar well diffusion test assay. The different dilutions of the test excipients in media were prepared in Falcon tubes and then distributed in a deep well plate using a multistepper. Each well received 1.2 ml and was subsequently inoculated with 120 μl of C. acnes bacteria suspension (strain C3 and K8). From the deep well plate 200 μl were transferred in each well of a clear 96 well replicate plate. The leftover was discarded. The plates were then incubated anaerobically for 3 days at 37° C. Following incubation, the test plates were visually examined and wells were scored for growth or complete growth inhibition to define the minimum inhibitory concentration.
(§3) These excipients are listed in the below table with their compatibility values for C. acnes strains C3 and K8. The compatibility values represent the MIC value of the listed ingredients with the tested C. acnes strains. At this concentration [% w/vol] the tested compound starts interfering with the growth of the tested strains. The compounds can be used in formulations at concentrations below this concentration.

A further test deals with C. acnes strain C3. Nature of the test: Minimum inhibitory concentration (MIC) of cosmetic excipients, strain C3. Particulars: % w/vol, incubated anaerobically for 3 days at 37° C., scored visually for growth. The class given is cell-based, Cutibacterium acnes. As for the experimental part: as §1, §2, §3

On to `CCO` [ethanol], for which the “COMPATABILITY VALUE K8 [%]” value with C. acnes strain K8 is listed as 3.75%. In addition, the “COMPATABILITY VALUE C3 [%]” value in the test on C. acnes strain C3 worked out at 3.75%.
In the case of `CC(CO)CO` [methylpropanediol], the “COMPATABILITY VALUE K8 [%]” value in the test with C. acnes strain K8 is 4.00%. Besides, the “COMPATABILITY VALUE C3 [%]” value with C. acnes strain C3 is recorded as 4.00%.
As for `CCCCCCC(O)CO` (centres unmarked) [caprylyl glycol], in the test with C. acnes strain K8, the “COMPATABILITY VALUE K8 [%]” value amounted to 0.18%. In addition, in the test with C. acnes strain C3, the “COMPATABILITY VALUE C3 [%]” value was 0.18%.
For ethylhexyl cocoate, in the test with C. acnes strain K8, the “COMPATABILITY VALUE K8 [%]” value is 10.00%. Besides, in the test with C. acnes strain C3, the “COMPATABILITY VALUE C3 [%]” value came to 10.00%.
For the compound `O=C(O)CC(O)(CC(=O)O)C(=O)O` [citric acid], in the test on C. acnes strain K8, the “COMPATABILITY VALUE K8 [%]” value was 0.08%. Besides, in the test on C. acnes strain C3, the “COMPATABILITY VALUE C3 [%]” value stood at 0.33%.
For the compound `CC(=O)Oc1c(C)c(C)c2c(c1C)CCC(C)(CCC[C@H](C)CCC[C@H](C)CCCC(C)C)O2` (some centres unmarked) [tocopheryl acetate], in the test on C. acnes strain K8, the “COMPATABILITY VALUE K8 [%]” value was determined as 1.00%. Besides, the “COMPATABILITY VALUE C3 [%]” value in the test on C. acnes strain C3 worked out at 1.00%.
With tocopherol, in the test on C. acnes strain K8, the “COMPATABILITY VALUE K8 [%]” value was determined as 1.50%. Besides, the “COMPATABILITY VALUE C3 [%]” value in the test with C. acnes strain C3 is listed as 1.50%.
